Reference: article PMC10385825, “Synthesis of Benzocycloalkanone-Based Michael Acceptors and Biological Activities as Antimalarial and Antitrypanosomal Agents” (Molecules, 2023)
“And” between values parts separate entries of the source, which are not always exact repeats. Equal entries are not always repeated.

What was measured:
[1] = tested on: T. cruzi epimastigotes (Y strain); assay: Trypanocidal activity, proliferation of T. cruzi epimastigotes (MTT); format: cell-based; conditions: Trypanosoma cruzi, 96 h, read-out: %ITcP: T. cruzi (epimastigotes) % inhibition proliferation
Protocol: The trypanocidal activity of compounds 7–39 was evaluated on the viability of T. cruzi epimastigotes (Y Strain). Parasites were cultivated in LIT medium supplemented with 10% FBS. The MTT method was used with minor modifications. Next, 2 × 10^6 parasites/mL were seeded in a 96-well plate, adding 50 μM of each derivative dissolved in DMSO (final concentration remained below 1%). The plate was incubated for 96 h at 29 °C. Then, 5 mg mL^−^1 of 3-(4,5-dimethylthiazol-2-yl)-2,5-diphenyl tetrazolium bromide (MTT) was added and incubated in darkness for 4 h. After this time, acidic isopropanol (4N) was added and the plate was read at 540 nm in a spectrophotometer Synergy HT (Biotek). Benznidazole (50 µM) was used as a reference drug.

VERO cells = assay: Cytotoxicity assay in VERO cells (MTT); format: cell-based; conditions: Chlorocebus sabaeus, 72 h
Protocol: The in vitro evaluations of compounds toxicity by MTT in VERO cells were performed as described in brief: VERO cells culture in DMEM, BSF 10%, were counted in suspension, seeded at 2 × 10^4 cells/well (100 μL) into a 96-well microplate, and incubated at 37 °C in a humidified 5% CO2 incubator for 24 h. After the incubation period, compounds were added in different concentrations: 50, 100, 150, 200, and 500 μM. The plate was incubated for 72 h in the same conditions. Then, 5 mg mL^−^1 of 3-(4,5-dimethylthiazol-2-yl)-2,5-diphenyl tetrazolium bromide (MTT) was added and incubated in darkness for 4 h. After this time, DMSO was added and the plate was read at 540 nm in a spectrophotometer Synergy HT (Biotek). The test was carried out in triplicate including untreated cells and reference drug controls.

β-hematin formation = assay: Inhibition of β-hematin formation in vitro; format: biochemical; conditions: for IC50: n = 3, read-out: IC50 (βHF) inhibition of β-hematin formation (± SEM)
Protocol: The assay was performed according to previously reported protocols. Hemin chloride (50 μL, 4 mM) in DMSO (5.2 mg mL^−1) was pipetted into 96-well microplates. Different concentrations (0.1–100 mM) of the compounds in DMSO were added in triplicate (50 μL) with a final concentration of 0.025 mM–25 mM/well. Water (50 μL) or DMSO (50 μL) were used as controls. […] Next, the plates were incubated at 37 °C for 48 h and subsequently centrifuged (4000 rpm × 15 min). The supernatant was washed twice with DMSO (200 μL) and resuspended in NaOH (200 μL, 0.2 N). The solubilized products were diluted (1:2) with NaOH (0.1 N), and the plates were read in an ELISA reader at 405 nm (Microplate Reader, BIORAD-550). The results are expressed as % IβHF.

P. berghei ANKA = assay: Four-day suppressive test in P. berghei-infected mice; format: in vivo, Plasmodium berghei (male Balb-C mice); conditions: for Sd: Survival days (± SEM): 20 mg kg−1 ip once daily, days 1–4 post-infection; for Sd: Survival days (± SEM) / %P: Percentage of parasitemia (± SEM): n = 6; for %P: Percentage of parasitemia (± SEM): fourth day post-infection, 20 mg kg−1 ip once daily for 4 days; for Survival: surviving mice/total, 20 mg kg−1 ip for 4 days
Protocol: Male Balb-C mice with a weight of 18–22 g were fed with a commercial diet ad libitum under standard procedures of animal care following the aforementioned method approved by the Ethics Committee of the Institute of Immunology. The animals were infected with a rodent malaria strain of Plasmodium berghei ANKA. A million infected erythrocytes, in phosphate-buffered saline solution (PBS, 10 mM, pH 7.4, 0.1 mL), were inoculated ip to infect the animal. The parasitemia was inspected by continuous microscopic examination of Giemsa-stained smears.
One million P. berghei, injected in the caudal vein i.v, were used to infect the mice (n = 6). After two hours of inoculation, the compounds that were active in vitro were dissolved in DMSO (0.1 M) and subsequently diluted with Saline-Tween 20 solution (2%), and administered ip for 4 days (20 mg kg^−^1). The parasite load was evaluated on the fourth day by examining Giemsa-stained smears. Chloroquine (20 mg kg^−^1) was used as the positive control and saline solution as the negative control. Non-treated mice were used as a baseline control for survival times. The survival days and percentage of parasitemia were used to express the results.

COc1cc2c(cc1OC)C(=O)/C(=C/c1ccc(SCc3ccccc3)cc1)C2 [compound 11, (E)-2-[4-(Benzylthio)benzylidene]-2,3-dihydro-5,6-dimethoxyinden-1-one]
inhibition at 50 µM [1]: 40 ± 8.2%
IC50 (VERO cells): > 150000 nM
IC50 (β-hematin formation): 820 ± 100 nM
Sd: Survival days (± SEM) (P. berghei ANKA): 14.2 ± 2.16 days and 14.2 ± 2.2 days
%P: Percentage of parasitemia (± SEM) (P. berghei ANKA): 7.6 ± 2.3%
Survival (P. berghei ANKA): 0/6

COc1ccc(OC)c2c1C/C(=C\c1ccc(SCc3ccccc3)cc1)C2=O [compound 12, (E)-2-[4-(Benzylthio)benzylidene]-2,3-dihydro-4,7-dimethoxyinden-1-one]
inhibition at 50 µM [1]: 18.5 ± 2.9%
IC50 (VERO cells): > 150000 nM
IC50 (β-hematin formation): 660 ± 100 nM
Sd: Survival days (± SEM) (P. berghei ANKA): 12.3 ± 2.40 days and 12.3 ± 2.4 days
%P: Percentage of parasitemia (± SEM) (P. berghei ANKA): 12.5 ± 3.1%
Survival (P. berghei ANKA): 0/6

COc1ccc2c(c1OC)C/C(=C\c1ccc(SCc3ccccc3)cc1)C2=O [compound 10, (E)-2-[4-(Benzylthio)benzylidene]-2,3-dihydro-4,5-dimethoxyinden-1-one]
inhibition at 50 µM [1]: 33 ± 5.6%
IC50 (VERO cells): > 150000 nM
IC50 (β-hematin formation): 33100 ± 2500 nM
Sd: Survival days (± SEM) (P. berghei ANKA): 18.8 ± 4.91 days and 18.8 ± 4.9 days
%P: Percentage of parasitemia (± SEM) (P. berghei ANKA): 9.1 ± 2.44%
Survival (P. berghei ANKA): 0/6

CCN(CC)CCCC(C)Nc1ccnc2cc(Cl)ccc12 (centres unmarked) [CQ, chloroquine, reference compound]
%IβHF: Percentage inhibition β-hematin formation (β-hematin formation; concentration of 10 μM): 95.34%
IC50 (β-hematin formation): 180 ± 100 nM
Sd: Survival days (± SEM) (P. berghei ANKA): 28 ± 1.34 days and 28 ± 1.3 days
%P: Percentage of parasitemia (± SEM) (P. berghei ANKA): 1.4 ± 0.54%
Survival (P. berghei ANKA): 5/6
